The target in one experiment is T1, hA2B (A2BAR) (Homo sapiens, UniProt P29275).
T1 construct: expressed in transfected cells; host or cells: HEK-293
T1 sequence (P29275 1-332): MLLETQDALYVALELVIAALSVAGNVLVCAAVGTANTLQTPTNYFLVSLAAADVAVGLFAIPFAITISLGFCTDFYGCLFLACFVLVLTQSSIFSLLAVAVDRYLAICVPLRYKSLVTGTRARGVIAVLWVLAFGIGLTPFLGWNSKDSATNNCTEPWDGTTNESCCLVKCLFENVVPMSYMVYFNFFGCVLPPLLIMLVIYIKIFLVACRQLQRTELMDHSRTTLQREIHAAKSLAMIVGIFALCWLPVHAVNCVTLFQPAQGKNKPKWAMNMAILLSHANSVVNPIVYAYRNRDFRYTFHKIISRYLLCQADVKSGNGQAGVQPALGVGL
Kind of experiment: cAMP assay, NECA-stimulated, HEK-293 cells with transfected A2BAR. It counts as cell-based. The following applies: n=3, read-out: Kb hA2B (cAMP production). As to the method:
Assays were performed in transfected A2BAR using a cyclic AMP (cAMP) enzyme immunoassay kit (Amersham Biosciences) following previously described protocols.[28 30] HEK-293 cells were seeded (10,000 cells/well) in 96-well culture plates and incubated at 37°C in an atmosphere with 5% CO2 in Eagle’s Medium Nutrient Mixture F-12 (EMEM F-12), containing 10% fetal calf serum (FCS) and 1% L-Glutamine. Cells were washed three times with 200 µL assay medium (EMEM-F12 and 25 mM HEPES pH=7.4) and pre-incubated with assay medium containing 30 µM rolipram and test compounds at 37°C for 15 min. Ten µM NECA was incubated for 15 min at 37°C (total incubation time 30 min). Reaction was stopped with lysis buffer supplied in the kit and the enzyme immunoassay was carried out for detection of intracellular cAMP at 450 nm in an Ultra Evolution detector (Tecan). The dose-response curve of NECA-elicited cAMP formation was used to determine the initial choice of A2BAR antagonist concentration (online supplemental figure 2).

For experiment [1], the system named is pAMPK in CD4 and CD8 T cells. Kind of experiment: Extracellular ADO uptake assay via pAMPK staining. Format: cell-based, human. The following applies: antagonist 12 µM, 50 µM exogenous adenosine, n=7 healthy donors. As to the method: Experimental setup was adopted from a previous study whereby AR antagonist was added to pretreat cells before exogenous adenosine treatment for intracellular and cytokine staining.[37] In brief, PBMCs were treated with 12 µM of A2BAR antagonists for 90 min before the addition of 50 µM of adenosine for 2 hours. Cells were harvested after 3 hours of CD3/CD28 bead stimulation before intracellular staining with phosphor-AMPK (Thr183, Thr172) rabbit primary antibody (Thermo Fisher Scientific) and antirabbit secondary antibody (BD biosciences).
Figure 4 Rescue of lymphocyte proinflammatory cytokine production IFNy and perforin by A2BAR antagonism. (A,B) Inhibition of extracellular adenosine uptake via phosphorylated-AMP activated protein kinase (pAMPK) staining (n=7 healthy donors). Production of proinflammatory cytokines—(C,D) IFNy and (E) perforin in CD4 (n=5 healthy donors) and CD8 (n=6 healthy donors) T cells. Expression of CD69 adhesion molecule in (F). CD4 (n=7 healthy donors) and (G) CD8 (n=4 healthy donors) T cells. A2BAR antagonist 12 µM was added. Outlier is presented as diamond shape and defined by Tukey’s rule, which is not included in statistical analysis. Box plots with minimum, first quartile, median, third quartile, and maximum are presented. Normalized fold change is based on percent values compared with untreated controls. Unpaired and non-parametric statistical analysis—Mann-Whitney test was performed against untreated control with *p<0.05, **p<0.01, ***p<0.001, and ****p<0.0001.

The subject of experiment [2] is breast cancer TILs against autologous tumor cells. In words: Chromium (51Cr) release cytotoxicity assay, breast cancer TILs. It counts as cell-based, human. The following applies: synthetic ADO, 48 hours. As to the method:
Chromium (51Cr) release cytotoxicity assay
Chromium (51Cr) release assay was used to measure the autologous TILs-mediated cytotoxicity against the established patient-derived breast and […] cell lines. Briefly, breast and sarcoma tumor cells were labelled with 51Cr (PerkinElmer) as target cells and seeded on 96-well V-bottom plate (Corning) at 5 000cells/well. Effector TILs were added at the indicated Effector: Target (E:T) ratios. The supernatants were collected carefully into LUMA plates (PerkinElmer) after 24 and 48 hours of co-culture. After drying overnight, radioactivity of the plate was read with MicroBeta2 (PerkinElmer).
Relative adenosine production assay
An ectonucleotidase CD73 assay was optimized to measure the relative ADO production based on competitive AMP blockade and presence of CD73+ cells. Day five patient-derived sarcoma spheroids were digested and split into triplicates in X-VIVO20 and 1% PS culture media with an excessive amount of AMP at 0.4mM (Sigma-Aldrich) incubated for 30 minutes.
After 1500 RPM was applied for three minutes, 25 μL supernatant were removed and mixed with 25 μL of 200 μM ATP (Sigma-Aldrich) in the same media. 25 μL of this mixture was added to a white opaque OptiPlate (PerkinElmer) containing 25 μL Cell-Titer Glo reagent (Promega, US). Relative luminescence unit (RLU) can be read on SPARK 10M plate reader with an integration time of 100ms. […]

For the molecule `CC1=C(C(=O)OC(C)C)C(c2ccco2)n2c(nc3ccccc32)N1` (stereo not shown) [ISAM-140, isopropyl 4-(furan-2-yl)−2-methyl-1,4-dihydrobenzo[4 5] imidazo[1,2 a]pyrimidine-3-carboxylate], the Kb at hA2B (A2BAR) came to 27 nM.
On to `CC1=C(C(=O)OC(C)C)C(c2ccoc2)n2c(nc3cc(Cl)ccc32)N1` (stereo not shown) [ISAM-M89A], for which the “pAMPK (extracellular ADO uptake) in CD8 T cells” value in experiment [1] is “significantly inhibited ADO uptake”. The “Rescue of killing of breast cancer TILs against autologous tumor cells” value in experiment [2] is listed as “rescued killing”.
In the case of `CC1=C(C(=O)OC(C)C)C(c2ccco2)n2c(nc3ccccc32)N1Cc1ccccc1F` (stereo not shown) [ISAM-R56A], in experiment [1], the “pAMPK (extracellular ADO uptake) in CD4 T cells” value is reported as “significantly downregulated pAMPK” and the “pAMPK (extracellular ADO uptake) in CD8 T cells” value is on record as “significantly downregulated pAMPK”. On hA2B (A2BAR), the Kb was 6.15 nM. For the same molecule, the “Rescue of killing of breast cancer TILs against autologous tumor cells” value in experiment [2] is recorded as “rescued killing”.

The record behind these values is article PMC9115112, “A2B adenosine receptor antagonists rescue lymphocyte activity in adenosine-producing patient-derived cancer models” (Journal for Immunotherapy of Cancer, 2022).
